Laboratory results taken from publication PMC6150237, “Study of Absorption Characteristics of the Total Saponins from Radix Ilicis Pubescentis in an In Situ Single-Pass Intestinal Perfusion (SPIP) Rat Model by Using Ultra Performance Liquid Chromatography (UPLC)” (Molecules : A Journal of Synthetic Chemistry and Natural …, 2017).
“And” between values parts separate entries of the source, which are not always exact repeats. Equal values may be shown once. “Also recorded” adds a separate entry of the source.

Key:
[1] = system: rat small intestine (duodenum, jejunum, ileum); assay: In situ single-pass intestinal perfusion (SPIP), saponins administrated in monomer forms; type: in vivo; design: key to Papp / Ka: -: no absorption; settings: for intestinal absorption of monomers: small intestine, result in words; for permeability classification: monomers, Papp > 0.12 × 10^−2 cm·min^−1 classified as completely absorbed (highly permeable)
Method: (§1) MDQ-TS perfusion samples at low, middle, and high concentration levels of 1.25, 2.5, and 5.0 mg·mL^−1 were prepared by separately dissolving MDQ-TS in the minimum amount of DMSO and diluted with K-R buffer solution. The amount of DMSO was 0.5% in the final perfusion solutions. C1, C2, C3, C4, DC1, and DC2 perfusion samples with the concentration equivalent to the amount contained in 2.5 mg·mL^−1 of MDQ-TS were individually prepared in the same way. Verapamil, amantadine and EDTA were directly dissolved in the MDQ-TS perfusate with terminal concentrations of 200 μmol·L^−1, 2.5 mmol·L^−1, and 2.5 mmol·L^−1, accordingly, and used for investigating the mechanisms involved for absorption.
(§2) In situ single-pass intestinal perfusion (SPIP) studies were performed using an experimental design adapted from the literature with some modifications. Briefly, male Sprague-Dawley rats weighing 180–220 g were acclimatized for at least one week before the experiment, and fasted for 18 h with free access to water before the perfusion experiment. Rats were anesthetized with an intraperitoneal injection of urethane (30 mg·kg^−1 body weight), and kept on a homeothermic blanket to maintain normal body temperature. The abdomen was opened with a midline longitudinal incision, and three segments of rat intestine (duodenum, jejunum, and ileum) of approximately 10 cm each were carefully cannulated on two ends with plastic tubing. Initially, the perfusion solution free of drug (37 °C) was pumped by peristaltic pump (BT100-1F, Longer Pump Co., Baoding, China) through the cannulated segments at a flow rate of 1 mL/min for approximately 30 min in order to clean out any residual debris. Secondly, the perfusion solution containing a known concentration of substance (C1, C2, C3, C4, DC1, DC2, and MDQ-TS) was perfused at 37 °C through the intestinal lumen at a constant flow rate of 0.2 mL/min. The first 20 min of period corresponds to steady state, i.e., when the substance is in equilibrium with the intestinal membrane. After steady state, samples were collected from distal portion of duodenum, jejunum and ileum at 10 min intervals (0–10, 10–20, 20–30, 30–40, 40–50, 50–60 min) in pre-weighted vials. Samples were immediately frozen at −20 °C until analysis by validated UPLC. During the experiment, care was taken to avoid disturbance of the circulatory system and the exposed segment was covered with a piece of sterilized gauze to keep it warm and moist by frequent application of warm (37 °C) saline. The intestinum tenue maintained its viability and intact state without disrupting the blood supply throughout the experimental period. Finally, animals were sacrificed after depth anesthesia by intraperitoneal injection of urethane, according to protocols for euthanasia in experimental animals. After death, the intestinal segment was removed for measurements of length and inside diameter.
(§3) The net water flux in the in situ perfusion studies (water absorption and efflux in the intestinal segment) was determined by gravimetric method. The effective absorption rate constant (Ka) and effective apparent permeability (Papp) of compounds in the intestinal segments were calculated according to the following mathematical expression:(1) Ka=(1−CoutQout/CinQin)Q/V (2) Papp=−Qln(CoutQout/CinQin)/2πrl where Cin and Cout are the concentration of test drug in the effluent perfusate through the inlet and outlet tube (μg·mL^−1), respectively. Qin and Qout represent the inlet and outlet volume of effluent perfusate (mL), respectively. Q is the volume flow rate of perfusion (mL·h^−1). V is the volume of the intestinal segment concerned (mL). 2πrl is the area of the mass transfer surface of intestinal segment concerned (cm^2).

rat duodenum [2] = assay: SPIP of MDQ-TS with or without verapamil (P-gp inhibitor); type: in vivo; settings: MDQ-TS 2.5 mg/mL; for Ka increase in comparison with non-Verapamil added group / Papp increase in comparison with non-Verapamil added group: verapamil 200 μmol·L^−1
Method: as §1, §2
as §3, with “(cm^2). […]” for “(cm^2).”

rat duodenum [3] = assay: SPIP of MDQ-TS with or without EDTA (tight junction modulator); type: in vivo; settings: MDQ-TS 2.5 mg/mL, EDTA 2.5 mmol·L^−1
Method: as §1, §2
as §3, with “(cm^2). […]” for “(cm^2).”

[4] = Stability in outflow perfusate matrix; type: physicochemical; settings: 37 °C
Method: The chromatographic method was validated for specificity, linearity and LOQ, accuracy and precision, extraction recovery, matrix, and stability. The validation parameters were studied using drug-free (blank) intestinal perfusate mixture that had passed through intestinal segments, and had been collected from five different rats. Specificity was evaluated by analyzing the intestinal perfusion blank and perfusion blank spiked with analytes to investigate the potential interferences of intestinal perfusate endogenous with the analytes; calibration and quality control (QC) samples were obtained by spiking mixed working standard solution in blank intestinal perfusion buffer. Calibration curves were constructed in the range of 20–1000 μg·mL^−1 for C1 (20, 40, 100, 200, 400, and 1000 μg·mL^−1), and 8.0–400.0 μg·mL^−1 for C2, C3, C4, DC1 and DC2 (8.0, 16.0, 40.0, 80.0, 160.0, and 400.0 μg·mL^−1). A weighted (1/x^2) linear least-squares linear regression method was used to determine the slope, intercept, and correlation coefficient; LOQ was determined by injection a series of standard solutions until the signal-to-noise (S/N) ratio was 10; Precision and accuracy were assessed at low, medium, and high concentration levels (40, 200, and 800 μg·mL^−1 for C1; 16, 80, and 320 μg·mL^−1 for C2, C3, C4, DC1, and DC2). Intra-day data was obtained by assaying six replicates at each concentration level in a day, and inter-day data was determined by analyzing QC samples in duplicates during three separate and successive days; The extraction recovery of the six analytes and IS from the outflow perfusate matrix was determined by comparing the mean peak areas of six replicates processed QC samples at each concentration level spiked before extraciton with those from outflow perfusate spiked after extraction; Matrix effect was assessed by comparing the mean peak areas of six replicates at each concentration level dissolved in the post-extracted intestinal perfusate matrix with those of neat standards (C1, C2, C3, C4, DC1, DC2, and IS) spiked in methanol at corresponding concentration levels; Stabilities of C1, C2, C3, C4, DC1, and DC2 in outflow perfusate matrix (12 h, 37 °C), processed samples (auto-sampler condition for 24 h), after freeze-thaw cycle and long-term cold storage (−20 °C, 14 days) were assayed by QC samples in six replicates at three concentration level.

[5] = monomer form, duodenum, concentration equivalent to 2.5 mg·mL^−1 MDQ-TS, n = 5

C[C@@H]1O[C@@H](O[C@H]2[C@H](O[C@H]3[C@H](O[C@H]4CC[C@]5(C)[C@H]6CC=C7[C@H]8[C@](C(=O)O)(CC[C@H](C)[C@@]8(C)O)CC[C@@]7(C)[C@]6(C)CC[C@H]5C4(C)C)OC[C@@H](O)[C@@H]3O)O[C@H](CO)[C@@H](O)[C@@H]2O)[C@H](O)[C@H](O)[C@H]1O [C4, ilexsaponin B2]
Ka ([1]; monomer form, duodenum, symbol): - | Papp ([1]; monomer form, duodenum, symbol): - | Ka ([1]; monomer form, ileum, symbol): - | Papp ([1]; monomer form, ileum, symbol): - | Ka ([1]; monomer form, jejunum, symbol): - | Papp ([1]; monomer form, jejunum, symbol): - | intestinal absorption of monomers ([1]; monomer form): could not be absorbed by small intestine at all; also recorded: no absorption; also recorded: could not be absorbed by the gastrointestinal tract at all | Ka increase in comparison with non-Verapamil added group (rat duodenum [2]): about 1.5 fold | Ka increase in comparison with non-EDTA added group (rat duodenum [3]): ~1.5 fold | Papp increase in comparison with non-EDTA added group (rat duodenum [3]): ~1.5 fold | stability in outflow perfusate matrix [4]: at least 12 h

CC1CCC2(C(=O)OC3OC(CO)C(O)C(O)C3O)CCC3(C)C(=CCC4C5(C)CCC(O)C(C)(C(=O)O)C5CCC43C)C2C1(C)O (stereo not drawn) [C2, ilexsaponin A1]
Ka [1, 5]: 1.40 ± 0.29 ×10^−2 min^−1 | Ka ([1]; monomer form, ileum, n = 5): 1.62 ± 0.32 ×10^−2 min^−1 | Papp ([1]; monomer form, ileum, n = 5): 0.25 ± 0.03 ×10^−2 cm·min^−1 | Ka ([1]; monomer form, jejunum, n = 5): 1.72 ± 0.16 ×10^−2 min^−1 | Papp ([1]; monomer form, jejunum, n = 5): 0.25 ± 0.01 ×10^−2 cm·min^−1 | permeability classification [1]: highly permeable | Ka increase in comparison with non-Verapamil added group (rat duodenum [2]): ~4.2 fold | Papp increase in comparison with non-Verapamil added group (rat duodenum [2]): about 2.3 fold | Ka increase in comparison with non-EDTA added group (rat duodenum [3]): ~1.6 fold | Papp increase in comparison with non-EDTA added group (rat duodenum [3]): ~1.2 fold | stability in outflow perfusate matrix [4]: at least 12 h

C[C@@H]1CC[C@]2(C(=O)O)CC[C@]3(C)C(=CC[C@@H]4[C@@]5(C)CC[C@H](O)[C@@](C)(C(=O)O)[C@@H]5CC[C@]43C)[C@@H]2[C@]1(C)O [C1, ilexgenin A]
Ka [1, 5]: 1.77 ± 0.17 ×10^−2 min^−1 | Ka ([1]; monomer form, ileum, n = 5): 1.50 ± 0.25 ×10^−2 min^−1 | Ka ([1]; monomer form, jejunum, n = 5): 1.65 ± 0.19 ×10^−2 min^−1 | permeability classification [1]: highly permeable | Ka increase in comparison with non-Verapamil added group (rat duodenum [2]): about 1.5 fold | Ka increase in comparison with non-EDTA added group (rat duodenum [3]): ~1.6 fold | Papp increase in comparison with non-EDTA added group (rat duodenum [3]): about 1.7 fold | stability in outflow perfusate matrix [4]: at least 12 h

C[C@@H]1O[C@@H](O[C@H]2[C@H](O[C@H]3[C@H](O[C@H]4CC[C@]5(C)[C@H]6CC=C7[C@H]8[C@](C(=O)O[C@@H]9O[C@H](CO)[C@@H](O)[C@H](O)[C@H]9O)(CC[C@H](C)[C@@]8(C)O)CC[C@@]7(C)[C@]6(C)CC[C@H]5C4(C)C)OC[C@@H](O)[C@@H]3O)O[C@H](CO)[C@@H](O)[C@@H]2O)[C@H](O)[C@H](O)[C@H]1O [DC2, ilexoside O]
Ka ([1]; monomer form, duodenum, symbol): - | Papp ([1]; monomer form, duodenum, symbol): - | Ka ([1]; monomer form, ileum, symbol): - | Papp ([1]; monomer form, ileum, symbol): - | Ka ([1]; monomer form, jejunum, symbol): - | Papp ([1]; monomer form, jejunum, symbol): - | intestinal absorption of monomers ([1]; monomer form): could not be absorbed by small intestine at all; also recorded: no absorption; also recorded: could not be absorbed by the gastrointestinal tract at all | intestinal absorption in Verapamil added group (rat duodenum [2]; verapamil 200 μmol·L^−1, result in words): could not be absorbed by the small intestine at all | Ka increase in comparison with non-EDTA added group (rat duodenum [3]): ~3.0 fold | Papp increase in comparison with non-EDTA added group (rat duodenum [3]): ~2.1 fold | stability in outflow perfusate matrix [4]: at least 12 h

ilexsaponin B3 [DC1]
Ka ([1]; monomer form, duodenum, symbol): - | Papp ([1]; monomer form, duodenum, symbol): - | Ka ([1]; monomer form, ileum, symbol): - | Papp ([1]; monomer form, ileum, symbol): - | Ka ([1]; monomer form, jejunum, symbol): - | Papp ([1]; monomer form, jejunum, symbol): - | intestinal absorption of monomers ([1]; monomer form): could not be absorbed by small intestine at all; also recorded: no absorption; also recorded: could not be absorbed by the gastrointestinal tract at all | Ka increase in comparison with non-Verapamil added group (rat duodenum [2]): ~2.9 fold | Papp increase in comparison with non-Verapamil added group (rat duodenum [2]): ~3.4 fold | Ka increase in comparison with non-EDTA added group (rat duodenum [3]): ~1.4 fold | Papp increase in comparison with non-EDTA added group (rat duodenum [3]): ~1.4 fold | stability in outflow perfusate matrix [4]: at least 12 h

C[C@H]1CC[C@]2(C(=O)O)CC[C@]3(C)C(=CC[C@@H]4[C@@]5(C)CC[C@H](O[C@@H]6OC[C@@H](O)[C@H](O)[C@H]6O[C@@H]6O[C@H](CO)[C@@H](O)[C@H](O)[C@H]6O)C(C)(C)[C@@H]5CC[C@]43C)[C@@H]2[C@]1(C)O [C3, ilexsaponin B1]
Papp ([1]; administered in monomer forms, summary bound): > 0.0012 cm/min | Ka [1, 5]: 1.49 ± 0.36 ×10^−2 min^−1 | Papp [1, 5]: 0.23 ×10^−2 cm·min^−1 and 0.23 ± 0.02 ×10^−2 cm·min^−1 | Ka ([1]; monomer form, ileum, n = 5): 1.38 ± 0.06 ×10^−2 min^−1 | Papp ([1]; monomer form, ileum, n = 5): 0.21 ± 0.06 ×10^−2 cm·min^−1 | Ka ([1]; monomer form, jejunum, n = 5): 1.56 ± 0.30 ×10^−2 min^−1 | Papp ([1]; monomer form, jejunum, n = 5): 0.23 ×10^−2 cm·min^−1 and 0.23 ± 0.05 ×10^−2 cm·min^−1 | permeability classification [1]: highly permeable | Ka increase in comparison with non-Verapamil added group (rat duodenum [2]): ~1.2 fold | Papp increase in comparison with non-Verapamil added group (rat duodenum [2]): ~1.4 fold | Ka increase in comparison with non-EDTA added group (rat duodenum [3]): ~1.5 fold | Papp increase in comparison with non-EDTA added group (rat duodenum [3]): ~1.9 fold | stability in outflow perfusate matrix [4]: at least 12 h
